Experimental data: patent publication US9125913B2, “Bcl-2-selective apoptosis-inducing agents for the treatment of cancer and immune diseases” (AbbVie Inc., priority 2008, dated 2015)

system: GST-Bcl-2; experiment: TR-FRET binding assay, Bcl-2; settings: TR-FRET Ki values
Summary of the method: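 Ki values come from Wang's competitive-binding equation applied to TR-FRET signal (excitation 340/35 nm; emission 520/525 nm F-Bak peptide, 495/510 nm Tb antibody). Protein, probe and antibody incubated with compound 3 h at room temperature; dilution series began at 50 μM as 2× stock in 10% DMSO.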

Question: For CC1(C)CCC(CN2CCN(c3ccc(C(=O)NS(=O)(=O)c4ccc(NCCN5CCCCC5=O)c([N+](=O)[O-])c4)c(Oc4ccc5[nH]ccc5c4)c3)CC2)=C(c2ccc(Cl)cc2)C1 [EXAMPLE 267, 4-(4-{[2-(4-chlorophenyl)-4,4-dimethylcyclohex-1-en-1-yl]methyl}piperazin-1-yl)-2-(1H-indol-5-yloxy)-N-[(3-nitro-4-{[2-(2-oxopiperidin-1-yl)ethyl]amino}phenyl)sulfonyl]benzamide], which “Binding selectivity ratio (Bcl-XL Ki/Bcl-2 Ki)” value (“Binding selectivity ratio” below) is on record?
Answer: The value was over 1453.3.

Question: How did the “Binding selectivity ratio” value turn out when CC1(C)CCC(CN2CCN(c3ccc(C(=O)NS(=O)(=O)c4ccc(NCCN5CCNC5=O)c([N+](=O)[O-])c4)c(Oc4ccc5[nH]ccc5c4)c3)CC2)=C(c2ccc(Cl)cc2)C1 [EXAMPLE 268, 4-(4-{[2-(4-chlorophenyl)-4,4-dimethylcyclohex-1-en-1-yl]methyl}piperazin-1-yl)-2-(1H-indol-5-yloxy)-N-[(3-nitro-4-{[2-(2-oxoimidazolidin-1-yl)ethyl]amino}phenyl)sulfonyl]benzamide] was run?
Answer: Its value is 1563.9.

Question: How did the “Binding selectivity ratio” value turn out when CC1(C)CCC(CN2CCN(c3ccc(C(=O)NS(=O)(=O)c4ccc(N5CCOCC5)c([N+](=O)[O-])c4)c(Oc4ccc5[nH]ccc5c4)c3)CC2)=C(c2ccc(Cl)cc2)C1 [EXAMPLE 270, 4-(4-{[2-(4-chlorophenyl)-4,4-dimethylcyclohex-1-en-1-yl]methyl}piperazin-1-yl)-2-(1H-indol-5-yloxy)-N-[(4-morpholin-4-yl-3-nitrophenyl)sulfonyl]benzamide] was run?
Answer: Its value is over 199.1.

Question: COC1CCN(c2ccc(S(=O)(=O)NC(=O)c3ccc(N4CCN(CC5=C(c6ccc(Cl)cc6)CC(C)(C)CC5)CC4)cc3Oc3ccc4[nH]ccc4c3)cc2[N+](=O)[O-])CC1 [EXAMPLE 271, 4-(4-{[2-(4-chlorophenyl)-4,4-dimethylcyclohex-1-en-1-yl]methyl}piperazin-1-yl)-2-(1H-indol-5-yloxy)-N-{[4-(4-methoxypiperidin-1-yl)-3-nitrophenyl]sulfonyl}benzamide] was tested. Which “Binding selectivity ratio” value did it give?
Answer: The value was over 107.2.

Question: Which “Binding selectivity ratio” value does the source give for O=C(NS(=O)(=O)c1ccc(NCC2CCOCC2)c([N+](=O)[O-])c1)c1ccc(N2CCN(CC3=C(c4ccc(Cl)cc4)CCC(N4CCCC4)C3)CC2)cc1Oc1ccc2[nH]ccc2c1 (stereo not shown) [EXAMPLE 272, 4-(4-{[2-(4-chlorophenyl)-5-pyrrolidin-1-ylcyclohex-1-en-1-yl]methyl}piperazin-1-yl)-2-(1H-indol-5-yloxy)-N-({3-nitro-4-[(tetrahydro-2H-pyran-4-ylmethyl)amino]phenyl}sulfonyl)benzamide] here?
Answer: The value was over 58011.8.

Question: For CC1(C)CCC(CN2CCN(c3ccc(C(=O)NS(=O)(=O)c4ccc(NCCN5CCNC(=O)C5)c([N+](=O)[O-])c4)c(Oc4ccc5[nH]ccc5c4)c3)CC2)=C(c2ccc(Cl)cc2)C1 [EXAMPLE 273, 4-(4-{[2-(4-chlorophenyl)-4,4-dimethylcyclohex-1-en-1-yl]methyl}piperazin-1-yl)-2-(1H-indol-5-yloxy)-N-[(3-nitro-4-{[2-(3-oxopiperazin-1-yl)ethyl]amino}phenyl)sulfonyl]benzamide], which “Binding selectivity ratio” value is on record?
Answer: The value was 2396.1.

Question: For CN(C)CCOc1ccc(-c2ccc(Cl)cc2)c(CN2CCN(c3ccc(C(=O)NS(=O)(=O)c4ccc(NN5CCN(C)CC5)c([N+](=O)[O-])c4)c(Oc4cccc5[nH]ccc45)c3)CC2)c1 [EXAMPLE 274, 4-[4-({4′-chloro-4-[2-(dimethylamino)ethoxy]-1,1′-biphenyl-2-yl}methyl)piperazin-1-yl]-2-(1H-indol-4-yloxy)-N-({4-[(4-methylpiperazin-1-yl)amino]-3-nitrophenyl}sulfonyl)benzamide], which “Binding selectivity ratio” value is on record?
Answer: Its value is 244.6.

Question: How did the “Binding selectivity ratio” value turn out when CC1(C)CCC(CN2CCN(c3ccc(C(=O)NS(=O)(=O)c4ccc(NCC5CCS(=O)(=O)C5)c([N+](=O)[O-])c4)c(Oc4ccc5[nH]ccc5c4)c3)CC2)=C(c2ccc(Cl)cc2)C1 (stereo not shown) [EXAMPLE 275, 4-(4-{[2-(4-chlorophenyl)-4,4-dimethylcyclohex-1-en-1-yl]methyl}piperazin-1-yl)-N-[(4-{[(1,1-dioxidotetrahydrothien-3-yl)methyl]amino}-3-nitrophenyl)sulfonyl]-2-(1H-indol-5-yloxy)benzamide] was run?
Answer: The value was over 6832.4.

Question: With CC1(C)CCC(CN2CCN(c3ccc(C(=O)NS(=O)(=O)c4ccc(NC5CCS(=O)(=O)C5)c([N+](=O)[O-])c4)c(Oc4ccc5[nH]ccc5c4)c3)CC2)=C(c2ccc(Cl)cc2)C1 (stereo not shown) [EXAMPLE 276, 4-(4-{[2-(4-chlorophenyl)-4,4-dimethylcyclohex-1-en-1-yl]methyl}piperazin-1-yl)-N-({4-[(1,1-dioxidotetrahydrothien-3-yl)amino]-3-nitrophenyl}sulfonyl)-2-(1H-indol-5-yloxy)benzamide] as the molecule, how does the “Binding selectivity ratio” value read?
Answer: Its value is 2650.8.

Question: For CC1(C)CCC(CN2CCN(c3ccc(C(=O)NS(=O)(=O)c4ccc(NCC5CCOCC5)c(C(F)(F)F)c4)c(Oc4ccc5[nH]ccc5c4)c3)CC2)=C(c2ccc(Cl)cc2)C1 [EXAMPLE 277, 4-(4-{[2-(4-chlorophenyl)-4,4-dimethylcyclohex-1-en-1-yl]methyl}piperazin-1-yl)-2-(1H-indol-5-yloxy)-N-{[4-[(tetrahydro-2H-pyran-4-ylmethyl)amino]-3-(trifluoromethyl)phenyl]sulfonyl}benzamide], which “Binding selectivity ratio” value is on record?
Answer: Its value is over 22.2.

Question: How did the “Binding selectivity ratio” value turn out when CC1(C)CCC(CN2CCN(c3ccc(C(=O)NS(=O)(=O)c4ccc(CCC5OCCO5)c([N+](=O)[O-])c4)c(Oc4ccc5[nH]ccc5c4)c3)CC2)=C(c2ccc(Cl)cc2)C1 [EXAMPLE 278, 4-(4-{[2-(4-chlorophenyl)-4,4-dimethylcyclohex-1-en-1-yl]methyl}piperazin-1-yl)-N-({4-[2-(1,3-dioxolan-2-yl)ethyl]-3-nitrophenyl}sulfonyl)-2-(1H-indol-5-yloxy)benzamide] was run?
Answer: The value was over 929.4.

Question: CC1(C)CCC(CN2CCN(c3ccc(C(=O)NS(=O)(=O)c4ccc(OCC5CCOCC5)c([N+](=O)[O-])c4)c(Oc4ccc5[nH]ccc5c4)c3)CC2)=C(c2ccc(Cl)cc2)C1 [EXAMPLE 279, 4-(4-{[2-(4-chlorophenyl)-4,4-dimethylcyclohex-1-en-1-yl]methyl}piperazin-1-yl)-2-(1H-indol-5-yloxy)-N-{[3-nitro-4-(tetrahydro-2H-pyran-4-ylmethoxy)phenyl]sulfonyl}benzamide] was tested. Which “Binding selectivity ratio” value did it give?
Answer: The value was over 6923.2.

Question: Which “Binding selectivity ratio” value does the source give for CC1(C)CCC(CN2CCN(c3ccc(C(=O)NS(=O)(=O)c4ccc(NCCN5CCNC(=O)C5)c([N+](=O)[O-])c4)c(Oc4cccc5[nH]ccc45)c3)CC2)=C(c2ccc(Cl)cc2)C1 [EXAMPLE 280, 4-(4-{[2-(4-chlorophenyl)-4,4-dimethylcyclohex-1-en-1-yl]methyl}piperazin-1-yl)-2-(1H-indol-4-yloxy)-N-[(3-nitro-4-{[2-(3-oxopiperazin-1-yl)ethyl]amino}phenyl)sulfonyl]benzamide] here?
Answer: Its value is 1097.2.

Question: Which “Binding selectivity ratio” value does the source give for CN1CC(Nc2ccc(S(=O)(=O)NC(=O)c3ccc(N4CCN(CC5=C(c6ccc(Cl)cc6)CC(C)(C)CC5)CC4)cc3Oc3ccc4[nH]ccc4c3)cc2[N+](=O)[O-])CC1=O (stereo not shown) [EXAMPLE 281, 4-(4-{[2-(4-chlorophenyl)-4,4-dimethylcyclohex-1-en-1-yl]methyl}piperazin-1-yl)-2-(1H-indol-5-yloxy)-N-({4-[(1-methyl-5-oxopyrrolidin-3-yl)amino]-3-nitrophenyl}sulfonyl)benzamide] here?
Answer: The value was 1558.9.

Question: Which “Binding selectivity ratio” value does the source give for CN1CC(Nc2ccc(S(=O)(=O)NC(=O)c3ccc(N4CCN(CC5=C(c6ccc(Cl)cc6)CC(C)(C)CC5)CC4)cc3Oc3ccc4[nH]ccc4c3)cc2[N+](=O)[O-])CCC1=O (stereo not shown) [EXAMPLE 282, 4-(4-{[2-(4-chlorophenyl)-4,4-dimethylcyclohex-1-en-1-yl]methyl}piperazin-1-yl)-2-(1H-indol-5-yloxy)-N-({4-[(1-methyl-6-oxopiperidin-3-yl)amino]-3-nitrophenyl}sulfonyl)benzamide] here?
Answer: The value was 3434.4.

Question: Which “Binding selectivity ratio” value does the source give for CC1(C)CCC(CN2CCN(c3ccc(C(=O)NS(=O)(=O)c4ccc(NN5CCCCC5)c([N+](=O)[O-])c4)c(Oc4cccc5[nH]ccc45)c3)CC2)=C(c2ccc(Cl)cc2)C1 [EXAMPLE 283, 4-(4-{[2-(4-chlorophenyl)-4,4-dimethylcyclohex-1-en-1-yl]methyl}piperazin-1-yl)-2-(1H-indol-4-yloxy)-N-{[3-nitro-4-(piperidin-1-ylamino)phenyl]sulfonyl}benzamide] here?
Answer: The value was over 13.9.

Question: For CC1(C)CCC(CN2CCN(c3ccc(C(=O)NS(=O)(=O)c4ccc(NN5CCCCC5)c([N+](=O)[O-])c4)c(Oc4ccc5[nH]ccc5c4)c3)CC2)=C(c2ccc(Cl)cc2)C1 [EXAMPLE 284, 4-(4-{[2-(4-chlorophenyl)-4,4-dimethylcyclohex-1-en-1-yl]methyl}piperazin-1-yl)-2-(1H-indol-5-yloxy)-N-{[3-nitro-4-(piperidin-1-ylamino)phenyl]sulfonyl}benzamide], which “Binding selectivity ratio” value is on record?
Answer: Its value is over 425.2.

Question: Which “Binding selectivity ratio” value does the source give for Cn1ncc(-c2ccc(Cl)cc2)c1CN1CCN(c2ccc(C(=O)NS(=O)(=O)c3ccc(NCC4CCOCC4)c([N+](=O)[O-])c3)c(Oc3ccc4[nH]ccc4c3)c2)CC1 [EXAMPLE 285, 4-(4-{[4-(4-chlorophenyl)-1-methyl-1H-pyrazol-5-yl]methyl}piperazin-1-yl)-2-(1H-indol-5-yloxy)-N-({3-nitro-4-[(tetrahydro-2H-pyran-4-ylmethyl)amino]phenyl}sulfonyl)benzamide] here?
Answer: The value was over 94.4.

Question: How did the “Binding selectivity ratio” value turn out when CC1(C)CCC(CN2CCN(c3ccc(C(=O)NS(=O)(=O)c4ccc(OCC5(C)COC5)c([N+](=O)[O-])c4)c(Oc4ccc5[nH]ccc5c4)c3)CC2)=C(c2ccc(Cl)cc2)C1 [EXAMPLE 286, 4-(4-{[2-(4-chlorophenyl)-4,4-dimethylcyclohex-1-en-1-yl]methyl}piperazin-1-yl)-2-(1H-indol-5-yloxy)-N-({4-[(3-methyloxetan-3-yl)methoxy]-3-nitrophenyl}sulfonyl)benzamide] was run?
Answer: Its value is over 1165.0.
